Results reported in ChEMBL document CHEMBL1151911, “A microwave-assisted facile regioselective Fischer indole synthesis and antitubercular evaluation of novel 2-aryl-3,4-dihydro-2H-thieno[3,2-b]indoles” (2009).
In brackets after ≈: the same amount, converted by molar mass.

Tested on: Mycobacterium tuberculosis
Test: Antimycobacterial activity against Mycobacterium tuberculosis H37Rv
Assay type: functional

With `Clc1ccc(C2Cc3[nH]c4ccc(Cl)cc4c3S2)cc1` (stereo unspecified) as the molecule, how does the MIC read?
Its MIC is 12.5 µg/mL (≈ 39 µM).

With `Brc1ccccc1C1Cc2[nH]c3ccccc3c2S1` (stereo unspecified) as the molecule, how does the MIC read?
Its MIC is 3.13 µg/mL (≈ 9.48 µM).

How did the MIC turn out when `Clc1ccccc1C1Cc2[nH]c3ccccc3c2S1` (stereo unspecified) was run?
Its MIC is 6.25 µg/mL (≈ 21.9 µM).

Which MIC does the source give for `Cc1ccc(C2Cc3[nH]c4ccc(Cl)cc4c3S2)cc1` (stereo unspecified) here?
Its MIC is 6.25 µg/mL (≈ 20.8 µM).

With `O=[N+]([O-])c1cccc(C2Cc3[nH]c4ccccc4c3S2)c1` (stereo unspecified) as the molecule, how does the MIC read?
Its MIC is 1.76 µg/mL (≈ 5.94 µM).

Which MIC does the source give for `Clc1ccc(C2Cc3[nH]c4ccc(Cl)cc4c3S2)c(Cl)c1` (stereo unspecified) here?
The MIC was 0.78 µg/mL (≈ 2.2 µM).

How did the MIC turn out when `Clc1ccc2[nH]c3c(c2c1)SC(c1ccccc1)C3` (stereo unspecified) was run?
Its MIC is 12.5 µg/mL (≈ 43.7 µM).

How did the MIC turn out when `Fc1ccc2[nH]c3c(c2c1)SC(c1ccc(Cl)cc1)C3` (stereo unspecified) was run?
The MIC was 1.56 µg/mL (≈ 5.14 µM).

`Cc1ccc(C2Cc3[nH]c4ccc(F)cc4c3S2)cc1` (stereo unspecified) was tested. Which MIC did it give?
Its MIC is 3.13 µg/mL (≈ 11 µM).

For `Cc1ccc(C2Cc3[nH]c4ccccc4c3S2)cc1` (stereo unspecified), which MIC is on record?
The MIC was 6.25 µg/mL (≈ 23.6 µM).

`Clc1ccc(C2Cc3[nH]c4ccccc4c3S2)c(Cl)c1` (stereo unspecified) was tested. Which MIC did it give?
The MIC was 1.76 µg/mL (≈ 5.5 µM).

For `Fc1ccc2[nH]c3c(c2c1)SC(c1ccccc1Cl)C3` (stereo unspecified), which MIC is on record?
The MIC was 1.76 µg/mL (≈ 5.79 µM).

How did the MIC turn out when `Fc1cccc(C2Cc3[nH]c4ccccc4c3S2)c1` (stereo unspecified) was run?
The MIC was 3.13 µg/mL (≈ 11.6 µM).

For `Clc1ccc2[nH]c3c(c2c1)SC(c1ccccc1Cl)C3` (stereo unspecified), which MIC is on record?
Its MIC is 3.13 µg/mL (≈ 9.77 µM).

`Fc1ccc2[nH]c3c(c2c1)SC(c1ccccc1)C3` (stereo unspecified) was tested. Which MIC did it give?
Its MIC is 6.25 µg/mL (≈ 23.2 µM).

How did the MIC turn out when `CC[C@@H](CO)NCCN[C@@H](CC)CO` [ETHAMBUTOL] was run?
The MIC was 1.56 µg/mL (≈ 7.64 µM).

With `CC(C)c1ccc(C2Cc3[nH]c4ccc(F)cc4c3S2)cc1` (stereo unspecified) as the molecule, how does the MIC read?
The MIC was 0.78 µg/mL (≈ 2.5 µM).

For `CO[C@H]1/C=C/O[C@@]2(C)Oc3c(C)c(O)c4c(O)c(c(/C=N/N5CCN(C)CC5)c(O)c4c3C2=O)NC(=O)/C(C)=C\C=C\[C@H](C)[C@H](O)[C@@H](C)[C@@H](O)[C@@H](C)[C@H](OC(C)=O)[C@@H]1C` [RIFAMPIN], which MIC is on record?
Its MIC is 0.1 µg/mL (≈ 0.122 µM).

How did the MIC turn out when `Fc1ccc(C2Cc3[nH]c4ccc(Cl)cc4c3S2)cc1` (stereo unspecified) was run?
Its MIC is 3.13 µg/mL (≈ 10.3 µM).

With `Fc1ccc2[nH]c3c(c2c1)SC(c1ccc(Cl)cc1Cl)C3` (stereo unspecified) as the molecule, how does the MIC read?
Its MIC is 0.4 µg/mL (≈ 1.18 µM).

With `Clc1ccc(C2Cc3[nH]c4ccccc4c3S2)cc1` (stereo unspecified) as the molecule, how does the MIC read?
Its MIC is 12.5 µg/mL (≈ 43.7 µM).

With `NC(=O)c1cnccn1` [PYRAZINAMIDE] as the molecule, how does the MIC read?
The MIC was 6.25 µg/mL (≈ 50.8 µM).

With `c1ccc(C2Cc3[nH]c4ccccc4c3S2)cc1` (stereo unspecified) as the molecule, how does the MIC read?
The MIC was 25 µg/mL (≈ 99.5 µM).

`NNC(=O)c1ccncc1` [ISONIAZID] was tested. Which MIC did it give?
The MIC was 0.05 µg/mL (≈ 0.365 µM).

How did the MIC turn out when `CC(C)c1ccc(C2Cc3[nH]c4ccc(Cl)cc4c3S2)cc1` (stereo unspecified) was run?
The MIC was 0.78 µg/mL (≈ 2.38 µM).

`CC(C)c1ccc(C2Cc3[nH]c4ccccc4c3S2)cc1` (stereo unspecified) was tested. Which MIC did it give?
Its MIC is 0.78 µg/mL (≈ 2.66 µM).
